The target in assay [1] is T1, human HIF-PHD2 (Homo sapiens, UniProt Q9GZT9).
T1 construct: purchased CrystalGenomics Ltd
The assay is described as follows: HIF-PHD inhibition assay (fluorescence polarization), human HIF-PHD2. Conditions: 2-oxoglutaric acid 3.33 μmol/L. The assay is classed as biochemical. Put shortly:
(§1)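 Activity was derived as the fluorescence polarization (mP) after enzyme addition minus that measured before enzyme addition. Probe bore a 5′-fluoresceinamide (FAM) label with an aminocaproic acid (ACA) linker.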

Assay [2] relates to Hep3B cells. The assay is described as follows: EPO production assay (ELISA of culture supernatant). The assay is classed as cell-based. Particulars: Homo sapiens, 3 μmol/L test compound, 48 hours, relative to control (0.1% DMSO), read-out: EPO production stimulation rate with 3 μmol/L test compound. Here is the method: The stimulatory effect of the compound onEPO production was determined as follows using Hep3B cells.
Cells were seeded on 96 well plates at 40000 cells/well, and the plate was incubated overnight in MEM medium containing 10% fetal bovine serum (FBS) at 37° C. under 5% CO2. The next day, the medium was replaced with MEM containing 0.5% FBS, followed by addition of test compound. The test compound was dissolved in dimethyl sulfoxide and added to the cell so that the final concentration of dimethyl sulfoxide was 0.1%. After incubation for additional 48 hours, the culture supernatant was collected, and EPO contained in the supernatant was determined using ELISA kit (EPO ELISA Kit 11-693-417-001, Roche Co.). The results were expressed as stimulation rate of EPO production (fold), which was calculated as the relative value of the EPO production with 3 μmol/L of the test compound compared to the EPO production without stimulation (control).
Stimulation rate of EPO production (fold)=(EPO production with addition of test compound)/(EPO production of control)

Assay [3] has as its target T2, human HIF-PHD3 (Homo sapiens, UniProt Q9H6Z9).
T2 construct: purchased CrystalGenomics Ltd
Nature of the assay: HIF-PHD inhibition assay (fluorescence polarization), human HIF-PHD3. Conditions: 2-oxoglutaric acid 166 μmol/L. The assay is classed as biochemical. Put shortly: as §1

T1 sequence (Q9GZT9 2-426 limits assumed): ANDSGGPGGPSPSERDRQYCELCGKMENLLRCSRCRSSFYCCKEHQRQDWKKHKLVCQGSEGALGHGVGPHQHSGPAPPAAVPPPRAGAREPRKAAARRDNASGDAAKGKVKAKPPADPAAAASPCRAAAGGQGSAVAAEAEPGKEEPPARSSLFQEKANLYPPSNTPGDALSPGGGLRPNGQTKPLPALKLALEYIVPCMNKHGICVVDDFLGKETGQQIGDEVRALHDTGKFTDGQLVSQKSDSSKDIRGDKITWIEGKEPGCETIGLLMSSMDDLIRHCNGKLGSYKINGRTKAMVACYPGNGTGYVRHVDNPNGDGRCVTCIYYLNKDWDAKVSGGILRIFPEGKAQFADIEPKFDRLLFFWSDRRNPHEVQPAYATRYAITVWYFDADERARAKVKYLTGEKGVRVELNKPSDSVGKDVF
T2 sequence (Q9H6Z9 whole entry): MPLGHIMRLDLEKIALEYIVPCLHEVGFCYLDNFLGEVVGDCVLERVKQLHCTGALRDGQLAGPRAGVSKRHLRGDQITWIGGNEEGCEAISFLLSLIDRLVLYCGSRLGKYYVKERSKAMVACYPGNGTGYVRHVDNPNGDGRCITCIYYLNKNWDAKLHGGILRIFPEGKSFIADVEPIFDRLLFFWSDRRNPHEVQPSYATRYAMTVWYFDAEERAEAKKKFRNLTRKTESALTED

On to `O=C(O)c1cnn(-c2nc(O)c3c(cnn3Cc3ccc(C4CCCCC4)cc3)n2)c1` [Example 37], for which the results for the IC50 in assay [1] and in assay [3] were 0.026 µM and 0.12 µM, respectively. In addition, the fold induction at 3 µM in assay [2] came to 8.3.
For `O=C(O)c1cnn(-c2nc(O)c3c(cnn3CCC3Cc4ccccc4C3)n2)c1` [Example 164], in that order: 0.021 µM, 0.21 µM and 8.8.
For `O=C(O)c1cnn(-c2nc(O)c3c(cnn3CCCOc3ccc(C(F)(F)F)cc3)n2)c1` [Example 175], in that order: 0.021 µM, 0.39 µM and 15.
Consider `CC(C)(Cn1ncc2nc(-n3cc(C(=O)O)cn3)nc(O)c21)Oc1ccccc1Cl` [Example 209], for which the values for the IC50 in assay [1] and in assay [3] were 0.033 µM and 0.23 µM, respectively. For the same compound, in assay [2], the fold induction at 3 µM was found to be 2.2.
For `O=C(O)c1cnn(-c2nc(O)c3c(cnn3Cc3ccc(Cl)cc3F)n2)c1` [Example 5], in that order: 0.13 µM, 0.74 µM and 2.9.
The matching figures for `O=C(O)c1cnn(-c2nc(O)c3c(cnn3CC3(c4ccccc4)CCCCC3)n2)c1` [Example 124]: 0.055 µM, 0.93 µM and 3.4.
On to `O=C(O)c1cnn(-c2nc3cnn(Cc4ccc(Cl)c(Cl)c4)c3c(=O)[nH]2)c1` [Example 1, 1-[1-(3,4-dichlorobenzyl)-7-hydroxy-1H-pyrazolo[4,3-d]pyrimidin-5-yl]-1H-pyrazole-4-carboxylic acid], for which the fold induction at 3 µM in assay [2] was 4.6. The same compound had a half-maximal inhibitory concentration (IC50) in assay [3] of 0.16 µM.
`CC(C)(CCn1ncc2nc(-n3cc(C(=O)O)cn3)nc(O)c21)c1ccc2ccccc2c1` [Example 132]: the IC50 in assay [1] turned out to be 0.067 µM; in assay [3] it was 0.4 µM. The fold induction at 3 µM in assay [2] turned out to be 2.6.
The matching figures for `O=C(O)c1cnn(-c2nc(O)c3c(cnn3Cc3ccc(-c4ccccc4)c(F)c3)n2)c1` [Example 91]: 0.024 µM, 0.028 µM and 8.6.
With `C[C@@H](C1CCCCC1)n1nc(F)c2nc(-n3cc(C(=O)O)cn3)nc(O)c21` [Example 468], the IC50 was 0.025 µM in assay [1] and 0.3 µM in assay [3]. The fold induction at 3 µM in assay [2] worked out at 3.1.
For `O=C(O)c1cnn(-c2nc(O)c3c(n2)c(F)nn3CC2CCCCC2)c1` [Example 217], in that order: 0.032 µM, 0.92 µM and 2.4.
For `COc1ccccc1-c1ccc(Cn2ncc3nc(-n4cc(C(=O)O)cn4)nc(O)c32)cc1F` [Example 95], in that order: 0.024 µM, 0.086 µM and 4.2.
For `O=C(O)c1cnn(-c2nc(O)c3c(cnn3CCOc3cccc4ccccc34)n2)c1` [Example 206], in that order: 0.032 µM, 0.51 µM and 2.2.
As for `O=C(O)c1cnn(-c2nc(O)c3c(cnn3Cc3cccc(-c4ccccc4)c3)n2)c1` [Example 39], the half-inhibitory concentration (IC50) in assay [1] was 0.025 µM; in assay [3], 0.35 µM. Also, in assay [2], the fold induction at 3 µM came to 5.
The matching figures for `O=C(O)c1cnn(-c2nc(O)c3c(n2)c(F)nn3CC2CCC3(CC2)CC3)c1` [Example 466]: 0.012 µM, 0.24 µM and 2.6.
For `O=C(O)c1cnn(-c2nc(O)c3c(cnn3CC3CCCCCC3)n2)c1` [Example 158], the IC50 was 0.024 µM in assay [1] and 0.31 µM in assay [3]. Besides, the fold induction at 3 µM in assay [2] is 1.2.
The matching figures for `O=C(O)c1cnn(-c2nc(O)c3c(n2)c(C(F)(F)F)nn3CC2CCCCC2)c1` [Example 477]: 0.18 µM, 0.83 µM and 2.5.
The matching figures for `O=C(O)c1cnn(-c2nc(O)c3c(cnn3CC3Cc4ccccc4C3)n2)c1` [Example 154]: 0.029 µM, 0.29 µM and 5.4.
The matching figures for `C[C@H](c1ccccc1)n1ncc2nc(-n3cc(C(=O)O)cn3)nc(O)c21` [Example 16]: 0.066 µM, 0.82 µM and 3.1.
For `O=C(O)c1cnn(-c2nc(O)c3c(cnn3Cc3cccc(-c4ccccc4C(F)(F)F)c3)n2)c1` [Example 47], the IC50 worked out at 0.077 µM in assay [1] and 0.65 µM in assay [3]. Further, in assay [2], the fold induction at 3 µM turned out to be 4.4.
On to `O=C(O)c1cnn(-c2nc(O)c3c(cnn3CCC(c3ccccc3)c3ccccc3)n2)c1` [Example 134], for which the IC50 in assay [1] came to 0.023 µM; in assay [3] it was 0.36 µM. Also, the fold induction at 3 µM in assay [2] was 25.
With `O=C(O)c1cnn(-c2nc(O)c3c(n2)c(F)nn3C[C@H]2CC[C@H](C(F)(F)F)CC2)c1` [Example 465], the IC50 in assay [1] is 0.011 µM; in assay [3] it was 0.21 µM. Moreover, the fold induction at 3 µM in assay [2] came to 2.5.
For `N#Cc1ccccc1-c1ccc(Cn2ncc3nc(-n4cc(C(=O)O)cn4)nc(O)c32)c(F)c1` [Example 87], in that order: 0.05 µM, 0.26 µM and 5.3.
For `CC1(Cn2ncc3nc(-n4cc(C(=O)O)cn4)nc(O)c32)CCCCC1` [Example 157], in that order: 0.04 µM, 0.72 µM and 4.
For `O=C(O)c1cnn(-c2nc(O)c3c(cnn3CCOc3ccc(C(F)(F)F)cc3)n2)c1` [Example 203], in that order: 0.065 µM, 0.17 µM and 4.5.
Consider `O=C(O)c1cnn(-c2nc(O)c3c(cnn3Cc3ccccc3-c3ccccc3)n2)c1` [Example 38], for which the figures for the IC50 in assay [1] and in assay [3] were 0.15 µM and 1.8 µM, respectively. Further, the fold induction at 3 µM in assay [2] came out at 2.9.
Consider `Cc1ccc(C(C)(C)Cn2ncc3nc(-n4cc(C(=O)O)cn4)nc(O)c32)cc1` [Example 119], for which, in assay [1], the concentration for half-maximal inhibition (IC50) was determined as 0.24 µM. Moreover, the fold induction at 3 µM in assay [2] was found to be 3.7.
For `Cc1nn(CC2CCCCC2)c2c(O)nc(-n3cc(C(=O)O)cn3)nc12` [Example 230], in that order: 0.083 µM and 2.
Regarding `O=C(O)c1cnn(-c2nc3cnn(Cc4ccc(-c5ccccc5F)c(F)c4)c3c(=O)[nH]2)c1` [Example 93], the fold induction at 3 µM in assay [2] was found to be 23. The same compound came in with an IC50 in assay [3] of 0.13 µM.
Consider `C[C@@H](c1ccc(Cl)c(Cl)c1)n1ncc2nc(-n3cc(C(=O)O)cn3)nc(O)c21` [Example 23], for which the fold induction at 3 µM in assay [2] stood at 3.2. This compound also came in with an IC50 in assay [3] of 0.22 µM.
The matching figures for `O=C(O)c1cnn(-c2nc3cnn(Cc4ccc(-c5ccccc5)cc4)c3c(=O)[nH]2)c1` [Example 55]: 34 and 0.024 µM.
The matching figures for `O=C(O)c1cnn(-c2nc3cn(Cc4ccc(-c5ccccc5)cc4)nc3c(=O)[nH]2)c1` [Example 237]: 4.3 and 0.038 µM.
For the compound `C[C@H](c1ccc(Cl)c(Cl)c1)n1ncc2nc(-n3cc(C(=O)O)cn3)nc(O)c21` [Example 22], the fold induction at 3 µM in assay [2] was 6.9. In assay [3], this compound yielded an IC50 of 0.54 µM.
In the case of `Cc1ccc(F)c(C(C)n2ncc3nc(-n4cc(C(=O)O)cn4)nc(O)c32)c1` (stereo not drawn) [Example 313], the IC50 came out at 0.04 µM in assay [1] and 0.9 µM in assay [3].
For `CCC(c1ccc(Cl)c(C)c1)n1ncc2nc(-n3cc(C(=O)O)cn3)nc(O)c21` (stereo not drawn) [Example 346], in that order: 0.065 µM and 0.53 µM.
For `CC(c1ccc(N2CCC(C(F)(F)F)CC2)cc1)n1ncc2nc(-n3cc(C(=O)O)cn3)nc(O)c21` (racemic) [Example 423], in that order: 0.031 µM and 0.74 µM.
The matching figures for `CC1(C)CC(n2ncc3nc(-n4cc(C(=O)O)cn4)nc(O)c32)CC(C)(C)C1` [Example 387]: 0.03 µM and 0.78 µM.
For the compound `CCCC[C@H](C)n1ncc2nc(-n3cc(C(=O)O)cn3)nc(O)c21` [Example 497], the IC50 came to 0.052 µM in assay [1] and 0.89 µM in assay [3].
The matching figures for `Cc1ccc(C(C)n2ncc3nc(-n4cc(C(=O)O)cn4)nc(O)c32)cc1Cl` (stereo not drawn) [Example 297]: 0.066 µM and 0.66 µM.
The matching figures for `CC1CC(n2ncc3nc(-n4cc(C(=O)O)cn4)nc(O)c32)CC(C)(C)C1` (single isomer, unassigned) [Example 408]: 0.038 µM and 0.4 µM.
The matching figures for `Cc1cc(Cn2ncc3nc(-n4cc(C(=O)O)cn4)nc(O)c32)ccc1-c1ccccc1` [Example 92]: 0.011 µM and 0.05 µM.
On to `C[C@@H](C1CCN(c2cccc(Cl)c2)CC1)n1ncc2nc(-n3cc(C(=O)O)cn3)nc(O)c21` [Example 435], for which the IC50 in assay [1] worked out at 0.015 µM; in assay [3], 0.17 µM.
The matching figures for `C[C@H]1CC[C@H](n2nc(F)c3nc(-n4cc(C(=O)O)cn4)nc(O)c32)CC1` [Example 479]: 0.042 µM and 0.26 µM.

The record behind these values is US20150239889A1, “PYRAZOLOPYRIMIDINE COMPOUND” (MITSUBISHI TANABE PHARMA CORPORATION, priority 2012, published 2015).
